This is an account of results in PubChem BioAssay AID1259411 (Chemical Carcinogenesis Research Information System (CCRIS), 2018).

Molecules are shown by their SMILES. The source made the active and inactive calls. The rule behind the calls is not given here.

The data set has as its system rodent carcinogenicity bioassays, tumor incidence. Description: CCRIS carcinogenicity studies. The conditions noted are these: Dose: 0, Dose: 0. Summed up:
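Archive of carcinogenicity, mutagenicity, tumor promotion and tumor inhibition results drawn from journals, NCI reports and other sources, expert-reviewed; covers 1985-2011 and is no longer updated.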

On to `CCCC[C@@H](C)[C@@H](OC(=O)C[C@@H](CC(=O)O)C(=O)O)[C@H](C[C@@H](C)C[C@H](O)CCCC[C@@H](O)C[C@H](O)[C@H](C)N)OC(=O)C[C@@H](CC(=O)O)C(=O)O`, for which the carcinogen call by setting is: (Species: FISH, Strain/Sex: SHASTA RAINBOW TROUT/MALE,FEMALE, Route: ORAL, 3.2, 23, 104 PPM IN DIET FOR 4 WK, RESUMED AFTER 2 WK FOR 30 WK (STUDY DURATION: 60 WK), 3.2, 23, 104 PPM IN DIET FOR 4 WK, RESUMED AFTER 2 WK FOR 30 WK (STUDY DURATION: 60 WK)) “inactive; negative”; (Species: MOUSE, Strain/Sex: B6C3F1/FEMALE, Route: ORAL, 5, 15, 50, 80 PPM IN DIET FOR 104 WK (STUDY DURATION: 104 WK), 5, 15, 50, 80 PPM IN DIET FOR 104 WK (STUDY DURATION: 104 WK), Tumor Site: Type of Lesion: LIVER: HEPATOCELLULAR ADENOMA, HEPATOCELLULAR CARCINOMA) “active; positive”; (Species: MOUSE, Strain/Sex: B6C3F1/MALE, Route: ORAL, 5, 15, 80, 150 PPM IN DIET FOR 104 WK (STUDY DURATION: 104 WK), 5, 15, 80, 150 PPM IN DIET FOR 104 WK (STUDY DURATION: 104 WK)) “inactive; negative”; (Species: RAT, Strain/Sex: BDIX/MALE,FEMALE, Route: ORAL, 1, 10, 25 MG/KG DIET FOR 2 YR (STUDY DURATION: 2 YR), 1, 10, 25 MG/KG DIET FOR 2 YR (STUDY DURATION: 2 YR)) “inactive; negative”; (Species: RAT, Strain/Sex: BDIX/MALE, Route: ORAL, 50 MG/KG DIET FOR 26 MO (STUDY DURATION: 26 MO), Tumor Site: Type of Lesion: LIVER: HEPATOCELLULAR CARCINOMA) “active; positive”; (Species: RAT, Strain/Sex: F344/FEMALE, Route: ORAL, 5, 15, 50, 100 PPM IN DIET FOR 104 WK (STUDY DURATION: 104 WK), 5, 15, 50, 100 PPM IN DIET FOR 104 WK (STUDY DURATION: 104 WK)) “inactive; negative”. Besides, the carcinogen call (Species: RAT, Strain/Sex: F344/MALE, Route: ORAL, 5, 15, 50, 150 PPM IN DIET FOR 104 WK (STUDY DURATION: 104 WK), 5, 15, 50, 150 PPM IN DIET FOR 104 WK (STUDY DURATION: 104 WK), Tumor Site: Type of Lesion: KIDNEY: RENAL TUBULE ADENOMA, RENAL TUBULE CARCINOMA) is “active; positive”.
For the compound `CCCCN(CC)c1c([N+](=O)[O-])cc(C(F)(F)F)cc1[N+](=O)[O-]`, the carcinogen call is “inactive; negative; slight but not statistically elevated incidence of total neoplastic tu” (Species: Mouse, Strain/Sex: B6C3F1/Female, Route: Oral, 0.005, 0.03, 0.15% in diet for 2 yrs in 2 replicates of 30 mice/sex/group, 0.005, 0.03, 0.15% in diet for 2 yrs in 2 replicates of 30 mice/sex/group); “inactive; negative; slight but not statistically elevated incidence of total neoplastic t” (Species: Mouse, Strain/Sex: B6C3F1/Male, Route: Oral, 0.005, 0.03, 0.15% in diet for 2 yrs in 2 replicates of 30 mice/sex/group, 0.005, 0.03, 0.15% in diet for 2 yrs in 2 replicates of 30 mice/sex/group); “active; positive; ca dpr judged the study as showing possible adverse effects” (Species: Rat, Strain/Sex: CDF (F344)CrlBR/Female (50/sex/group), Route: Oral, 10, 100, 2500, 5000 ppm (about 0; 0.7; 6.8; 168; 331 mg/kg/day ) in diet for 104 wks, 10, 100, 2500, 5000 ppm (about 0; 0.7; 6.8; 168; 331 mg/kg/day ) in diet for 104 wks, Tumor Site: Type of Lesion: Thyroid: thyroid follicular adenomas and carcinomas (0/50; 0/50; 1/50; 5/50; 4/50)); “active; positive; ca dpr judged the study as showing possible adverse effects” (Species: Rat, Strain/Sex: CDF (F344)CrlBR/Male (50/sex/group), Route: Oral, 10, 100, 2500, 5000 ppm (about 0; 0.5; 5.4; 136; 275 mg/kg/day ) in diet for 104 wks, 10, 100, 2500, 5000 ppm (about 0; 0.5; 5.4; 136; 275 mg/kg/day ) in diet for 104 wks, Tumor Site: Type of Lesion: Thyroid: thyroid follicular adenomas and carcinomas (1/50; 1/50; 7/50; 8/50) Liver: Hepatocellular tumors (primari).
In the case of `CC1CN(N=O)C(=O)NC1=O` (centres undefined), the carcinogen call reads like this: (Species: RAT, Strain/Sex: MRC-WISTAR/FEMALE, Route: ORAL, 10 G TOTAL DOSE IN CITRATE BUFFER IN DRINKING WATER 5D/WK FOR 12 MO (STUDY DURATION: 2 YR)) “inactive; negative”; (Species: RAT, Strain/Sex: MRC-WISTAR/MALE, Route: ORAL, 1 G TOTAL DOSE IN CITRATE BUFFER IN DRINKING WATER 5D/WK FOR 12 MO (STUDY DURATION: 2 YR)) “inactive; negative”.
Turning to `CCCN(CCC)C(=O)SCC`, the carcinogen call is “inactive; negative” (Species: Mouse, Strain/Sex: Crl:CD-1/Female (60/Group), Route: Oral, 200, 600, 1800 ppm in diet for 73 wks, study duration 73 wks, 200, 600, 1800 ppm in diet for 73 wks, study duration 73 wks); “inactive; negative” (Species: Mouse, Strain/Sex: Crl:CD-1/Male (60/Group), Route: Oral, 200, 600, 1800 ppm in diet for 73 wks, study duration 73 wks, 200, 600, 1800 ppm in diet for 73 wks, study duration 73 wks); “inactive; negative” (Species: Rat, Strain/Sex: Crl:CD (SD) BR/Female (90/Group), Route: Oral, 9, 18, 36, 72 mg/kg/day in diet for 2 yr, study duration 2 yr, 9, 18, 36, 72 mg/kg/day in diet for 2 yr, study duration 2 yr); “inactive; negative” (Species: Rat, Strain/Sex: Crl:CD (SD) BR/Male (90/Group), Route: Oral, 9, 18, 36, 72 mg/kg/day in diet for 2 yr, study duration 2 yr, 9, 18, 36, 72 mg/kg/day in diet for 2 yr, study duration 2 yr).
With `Nc1cccc2c(N)cccc12`, the carcinogen call is, setting by setting: (Species: MOUSE, Strain/Sex: B6C3F1/FEMALE, Route: ORAL, 0.1, 0.2% IN DIET FOR 103 WK (STUDY DURATION: 105-109 WK), 0.1, 0.2% IN DIET FOR 103 WK (STUDY DURATION: 105-109 WK), Tumor Site: Type of Lesion: LUNG: ALVEOLAR/BRONCHIOLAR ADENOMA OR CARCINOMA, LIVER: HEPATOCELLULAR CARCINOMA, HEPATOCELLULAR ADENOMA OR CARCINOMA, T, Tumor Site: Type of Lesion: LUNG: ALVEOLAR/BRONCHIOLAR ADENOMA OR CARCINOMA, LIVER: HEPATOCELLULAR CARCINOMA, HEPATOCELLULAR ADENOMA OR CARCINOMA, T) “active; positive”; (Species: MOUSE, Strain/Sex: B6C3F1/MALE, Route: ORAL, 0.1, 0.2% IN DIET FOR 103 WK (STUDY DURATION: 105-109 WK), 0.1, 0.2% IN DIET FOR 103 WK (STUDY DURATION: 105-109 WK), Tumor Site: Type of Lesion: THYROID GLAND: PAPILLARY ADENOMA OR FOLLICULAR CELL ADENOMA OR PAPILLARY CYSTADENOMA (NOS)) “active; positive”; (Species: RAT, Strain/Sex: F344/FEMALE, Route: ORAL, 0.05, 0.1% IN DIET FOR 103 WK (STUDY DURATION: 106-110 WK), 0.05, 0.1% IN DIET FOR 103 WK (STUDY DURATION: 106-110 WK), Tumor Site: Type of Lesion: CLITORAL GLAND: ADENOMA (NOS) OR CARCINOMA (NOS), UTERUS: ENDOMETRIAL STROMAL POLYP) “active; positive”; (Species: RAT, Strain/Sex: F344/MALE, Route: ORAL, 0.05, 0.1% IN DIET FOR 103 WK (STUDY DURATION: 106-109 WK), 0.05, 0.1% IN DIET FOR 103 WK (STUDY DURATION: 106-109 WK)) “inactive; negative”.
`C=CC(=O)OCCCC`: the carcinogen call is “inactive; negative” (Species: MOUSE, Strain/Sex: C3H/MALE, Route: DERMAL, 0.2 MG IN 25 µL ACETONE 3/WK FOR LIFESPAN (STUDY DURATION: LIFESPAN)); “inactive; negative” (Species: RAT, Strain/Sex: SPRAGUE-DAWLEY/FEMALE, Route: INHALATION, 15, 45, 135 PPM 6 HR/D 5 D/WK FOR 24 MO (STUDY DURATION: 130 WK), 15, 45, 135 PPM 6 HR/D 5 D/WK FOR 24 MO (STUDY DURATION: 130 WK)); “inactive; negative” (Species: RAT, Strain/Sex: SPRAGUE-DAWLEY/MALE, Route: INHALATION, 15, 45, 135 PPM 6 HR/D 5 D/WK FOR 24 MO (STUDY DURATION: 130 WK), 15, 45, 135 PPM 6 HR/D 5 D/WK FOR 24 MO (STUDY DURATION: 130 WK)).
